# Experimental data: patent US20070197562A1, “Remedies for prostatic hypertrophy” (Yokohama TLO Company, Ltd., priority 2004, published 2007)
# Key:
# Format in all cases: cell-based, human
# [1] = system: PrSC cells; assay: IL-6 secretion by PrSC cells (CLEIA); conditions: 24 hours
# Description: PrSC cells prepared in the same manner as Example 1, or F-1 or FT-FB cells prepared as described above were placed in a 6-well dish at 10^5 cells per well, cultured at 5% CO2 and 37° C. for 1 day (24 hours), and stimulated by the addition of TGFβ (1 ng/mL), TNFα (1 ng/mL), EGF (2.5 or 10 ng/mL), or angiotensin II (1 μM or 10 μM) (n=3). CV was added as the AIIR blocker to some wells 4 hours before adding the reagents. The culture media were collected 24 hours after adding the reagents, and the concentrations of IL-6 were determined by the CLEIA method.
# [2] = system: PrSC cells; assay: Proliferation of PrSC cells stimulated with angiotensin II, TGFβ or EGF (cell count, Examples 1-3); conditions: 5 days
# Description: A Cell Line Derived from Normal Human Prostatic stromal cells, i.e., PrSC cells, was purchased from Sanko Junyaku Co. Ltd. (Normal Human Prostate Stromal Cells, catalogue number CC-2508), and maintained by subculturing them in a phenol red-free RPMI medium under conditions of 5% CO2 and 37° C.
# The PrSC cells (10^4 cells) were placed in a 12-well dish, and cultured in a phenol red-free medium containing 0.1% (W/V) BSA under conditions of 5% CO2 and 37° C. for several days. Then, 1 μM or 10 μM of angiotensin II was added. To some wells, CV (10 μM; hereinafter CV was used at this concentration unless otherwise noted) was added as an AIIR blocker 4 hours before adding angiotensin II. Each group contained four wells (n=4). After culturing the cells at 5% CO2 and 37° C. for 5 days, the number of all cells in each of the wells was counted.
# The effect of an AIIR blocker was examined in the same manner as Example 1, except for that 10 ng/mL of TGFβ was used in place of angiotensin II.
# The effect of an AIIR blocker was examined in the same manner as Example 1, except for that 10 ng/mL of EGF was used in place of angiotensin II.
# [3] = system: MAPK phosphorylation in PC-3 cells; assay: MAPK phosphorylation in PC-3 cells cultured in PrSC conditioned media (Western blotting); conditions: 10% FCS-CM from PrSC with AIIR blocker 10 μM, no angiotensin II; lanes 5 and 6 vs lane 4; 10 minutes
# Description: Stromal cells (PrSC) were cultured in a phenol red-free F12 medium containing 0.1% (W/V) BSA, to which angiotensin II (10 μM) was added alone or in combination with losartan (“Los”; 10 μM). The culture medium was collected 24 hours after the addition, and used as a conditioned medium (“0.1% BSA-CM”).
# Stromal cells (PrSC) were cultured in a phenol red-free F12 medium containing 10% (V/V) FCS, to which CV (10 μM) or losartan (10 μM) was added. The culture medium was collected 24 hours after the addition, and used as a conditioned medium (“10% FCS-CM”) with no addition of angiotensin II. 10% FCS-CM with no additive was also prepared in the same manner.
# 3,000,000 PrSC cells were used for each of the above 10-1 and 10-2
# PC3 cells (prostate cancer cells) were cultured for 24 hours in a phenol red-free F12 medium supplemented with 0.1% (W/V) BSA. Then the medium was replaced with one of the conditioned media prepared as described above, and the cells were collected 10 minutes later. Total cellular proteins were extracted as described below. Similar protocol was done in parallel for PC-3 cells without using any conditioned medium (“Control”).
# The cells were washed twice with an ice-cold phosphate buffer (PBS), and lysed in 200 μL of an ice-cold cell lysis solution (lysis buffer; 20 mM of Tris (pH8.0), 137 mM of NaCl, 10% of glycerol, 0.1% of SDS, 0.5% of Nonidet P-40 (trade name), 100 mM of sodium fluoride, […] of sodium orthovanadate, 1 mM of EGTA, 2 mM of phenylmethylsulfonyl fluoride, […] of leupeptin, and […] of aprotinin). The mixture was centrifuged. Subsequently, the supernatant was collected.
# The resulting protein sample was subjected to SDS-PAGE in the routine manner, and the MAPK phosphorylation was determined by Western blotting using an anti-phospho-MAP kinase antibody or an anti-MAP kinase antibody) (both were purchased from Cell Signaling Technology (Beverly, Mass.)) as the detecting antibody.
# From the obtained results, the expression levels of pMAPK and MAPK bands were determined using NIH image software. On the basis of the results, the pMAPK/MAPK ratio in each lane was calculated, and then the ratio (“pMAPK ratio”) of the obtained value of each lane to that of the lane 1 (“Control”) was calculated by taking the value of Control as 1.
smiles,measurement,setting,value
"CCOc1nc2cccc(C(=O)OC(C)OC(=O)OC3CCCCC3)c2n1Cc1ccc(-c2ccccc2-c2nnn[nH]2)cc1 (centres unmarked) [CV, 1-(cyclohexyloxycarbonyloxy)ethyl 2-ethoxy-1-[[2′-(1H-tetrazole-5-yl)biphenyl-4-yl]methyl]-1H-benzimidazole-7-carboxylate]",IL-6 secretion,"[1]; EGF (10 ng/mL)+CV (10 μM), P<0.05 vs EGF",significantly suppressed
same,IL-6 secretion,"[1]; TGFβ (1 ng/mL)+CV 10 μM, P<0.04 vs TGFβ",significantly suppressed
same,IL-6 secretion,"[1]; TNFα (1 ng/mL)+CV 10 μM, P<0.01 vs TNFα",significantly suppressed
same,increase in the numbers of cells,"[2]; AII (1 μM)+CV 10 μM added 4 hours before, P<0.01 vs AII (1 μM)",suppressed to a level similar to that of the control group
same,increase in the numbers of cells,"[2]; AII (10 μM)+CV 10 μM added 4 hours before, P<0.01 vs AII (10 μM)",suppressed to a level similar to that of the control group
same,increase in the number of cells,"[2]; EGF 10 ng/mL + CV 10 μM, P<0.05",significantly suppressed (P<0.05) to the same level as that of the control group
same,increase in the number of cells,"[2]; TGFβ 10 ng/mL + CV 10 μM, P<0.05 vs TGFβ",significantly suppressed
same,MAPK phosphorylation in PC-3 cells,[3],suppressed
